Results from patent publication US20070261453A1, “Plant Nutrient Based on O,P-Ethylene(Bis)Hydroxyphenyl Glycines” (priority 2004, published 2007).

Test system: Soybean (cv.Oshumi) plants
Assay: Soybean iron chlorosis experiment in aerated nutrient solution with Fe chelate treatments (plant weight, iron content, SPAD index)
Type: in vivo
Details: for Iron content in parts of the plants: leaf / Iron content in parts of the plants: per number of leaves / Iron content in parts of the plants: root: dry digestion and atomic absorption, sampled after 14 days; for Iron content in parts of the plants: leaf / Iron content in parts of the plants: per number of leaves / Iron content in parts of the plants: root / Dry leaf weight / Dry root weight / Fresh leaf weight / Fresh plant weight / Fresh root weight: mean of 4 replicates; for Dry leaf weight / Dry root weight / Fresh leaf weight / Fresh plant weight / Fresh root weight: iron-chlorotic soybean plants, sampled 14 days after start of Fe treatment; for Spad index (second leaf): Minolta SPAD 502, means of 4 replicates
Description: Soybean (cv.Oshumi) plants have been used in the biological experiment. Plants were obtained from soybean seeds that were germinated in standard seed growing procedure in closed sterilized trays. The seeds were placed in the trays on a cellulose paper soaked with 50 milliliters of distilled water and with another paper placed over them. 30 ml distilled water and 20 ml CaSO4 1 mM were added. The trays were placed in a thermostatized stove, without light, at […] for 3 days. After this time the seedlings of similar development were placed on a holed plate floating over containers full of diluted nutrient solution and EDTA for 7 days. Nutrient solutions (without iron) were a mixture of: macronutrients: 1 mM Ca(NO3)2·4H2O, 0.9 mM KNO3, 0.3 mM MgSO4, 0.1 mM KH2PO4; cationic micronutrients: 2.5 μM MnSO4, 1 μM CuSO4, 10 μM ZnSO4, 1 μM NiCl2, 1 μM CoSO4, 115.5 μM EDTANa2 (100 μM in excess to buffer micronutrients activities), 231 μM KOH; anionic micronutrients: 35 μM NaCl, 10 μM H3BO3, 0.05 μM Na2MoO4. The pH was buffered at 7.5 with 0.1 mM HEPES (N-2-Hydroxyethylpiperazine-N′-2-ethanesulfonic acid), 0.05mM KOH and 2 g of CaCO3 per pot. Later, plants were subjected to a stressing procedure that consisted in putting them in five pails that contained 10 | each one of nutrient solution without iron chelate. […] After 6 days, the stems of two plants were wrapped together with foam and placed in 2 | polyethylene vessels (3 holes per lid, 2 plants per pot). The pots were completely covered with black plastic to avoid the incidence of the light. The vessels contained 2 | of continuously aerated nutrient solution containing the Fe treatments. Nutrient solution consisted of macronutrients and anionic micronutrients as before and cationic micronutrients: MnSO4 (1 μM), CuSO4 (0.5 μM), ZnSO4 (0.5 μM), NiCl2 (0.1 μM) and CoSO4 (0.1 μM). Water was added every two days and the solution was renewed every week. Plants were sampled 14 days after. Roots and leaves were separated and washed first with Tween® 80 (polyoxyethylene sorbitan monooleate) in 0.1 M HCl for 30 seconds, and then with abundant distilled water, after that they were weighted and dried. Micronutrientes were determined in leaves and in roots after dry digestion procedure and atomic absorption. During the experiment SPAD readings were frequently taken using the Minolta SPAD 502 chlorophyll meter, for all the leaves.
Seven different treatments were applied: • Comparative Example 1: No iron added. • Comparative Example 2: Fe-o,o-EDDHA 5 μM • Comparative Example 3: Fe-o,o-EDDHA 5 μM+Fe-o,p-EDDHA 1 μM. • Comparative Example 4: Fe-o,o-EDDHA 5 μM+Fe-o,p-EDDHA 2.5 μM. • Comparative Example 5: Fe-o,o-EDDHA 10 μM • Example 1: Fe-o,p-EDDHA 5 μM. • Example 2: Fe-o,o-EDDHA 5 μM+Fe-o,p-EDDHA 5 μM.
Four replications were prepared for each treatment.

[1] = listed as Comparative Example 2

| SMILES | Dry leaf weight [g] | Dry root weight [g] | Fresh leaf weight [g] | Fresh plant weight [g] | Fresh root weight [g] | Iron content in parts of the plants: leaf [μg Fe/g dry leave] | Iron content in parts of the plants: per number of leaves | Iron content in parts of the plants: root [μg Fe/g dry root] | Spad index (second leaf) (time 0 days) | Spad index (second leaf) (time 2 days) | Spad index (second leaf) (time 4 days) | Spad index (second leaf) (time 7 days) | Spad index (second leaf) (time 9 days) | Spad index (second leaf) (time 11 days) | other results |
| --- | --- | --- | --- | --- | --- | --- | --- | --- | --- | --- | --- | --- | --- | --- | --- |
| O=C([O-])C(NCCNC(C(=O)[O-])c1ccccc1[O-])c1ccccc1[O-].[Fe+3] (single isomer, unassigned) [Comp. Example 2, Fe-o,o-EDDHA] | 0.321 | 0.282 | 1.257 | 6.781 | 3.818 | – | – | – | – | – | – | – | – | – | Iron content in parts of the plants: leaf [1]: 62.30 μg Fe/g dry leave; Iron content in parts of the plants: per number of leaves [1]: 19.82 μg Fe/number of leaves; Iron content in parts of the plants: root [1]: 90.32 μg Fe/g dry root; Spad index (second leaf) (time 0 days, listed as C2): 12.7; Spad index (second leaf) (time 2 days, listed as C2): 10.1; Spad index (second leaf) (time 4 days, listed as C2): 9.1; Spad index (second leaf) (time 7 days, listed as C2): 9.5; Spad index (second leaf) (time 9 days, listed as C2): 9.2; Spad index (second leaf) (time 11 days, listed as C2): 8.2 |
| O=C([O-])C(NCCNC(C(=O)[O-])c1ccccc1[O-])c1ccccc1[O-].[Fe+3] (single isomer, unassigned) [Comp. Example 5, Fe-o,o-EDDHA] | 0.781 | 0.425 | 4.736 | 15.862 | 7.316 | 74.87 | 55.15 μg Fe/number of leaves | 77.22 | 16.6 | 15.7 | 15.0 | 18.2 | 19.7 | 19.0 | – |
| O=C([O-])C(NCCNC(C(=O)[O-])c1ccccc1[O-])c1ccc(O)cc1.[Fe+3] (stereo not drawn) [Example 1, Fe-o,p-EDDHA] | 1.136 | 0.595 | 6.282 | 21.186 | 8.933 | 80.98 | 91.91 μg Fe/number of leaves | 128.48 | 14.7 | 14.0 | 18.0 | 21.4 | 13.9 | 24.9 | Course of SPAD values compared with Comparative Examples (in words) (Example 1 vs Comparative Examples 1 to 3, Example 2 vs Comparative Examples 4 and 5): raise considerably steeper; Weight of the plants compared with Comparative Examples (in words) (Example 1 vs Comparative Examples 1 to 3, Example 2 vs Comparative Examples 4 and 5, Table 3): considerable raise of weight of the plants; Iron content in parts of the plants compared with Comparative Examples (in words) (Example 1 vs Comparative Examples 1 to 3, Example 2 vs Comparative Examples 4 and 5, Table 4): increase in the iron content |
